Patent US6741954B2, “Selection method for odorants” (Symrise GmbH & Co. KG, priority 2000, dated 2004)
Like-named read-outs stand apart in the source and are kept apart here.

Tests used:
Format in all cases: physicochemical
[1] = Headspace above the shampoo: relative partition parameter (SPME-GC); conditions: log of amount in headspace relative to amount in shampoo; 1% odorant mixture, SPME 15 min
Description: (§1) The procedure is analogous in all examples.
The example reflects the scent impression, which is perceived from a freshly opened bottle of shampoo. The mixture of 39 odorants is incorporated into the above-mentioned shampoo (1) in an amount of 1%. 20 g of the shampoo are transferred to a 100 ml Erlenmeyer flask sealed with a septum. The headspace above the shampoo is extracted using a SPME over 15 min. […] The analytical results are then used mathematically as described above.

[2] = Headspace above the wet washed hair: relative partition parameter headspace/shampoo (SPME-GC)
Description: as §1
The example reflects the scent impression, which is perceived from freshly washed hair. The shampoo is prepared as is generally customary. The mixture of 39 odorants is incorporated into the above-mentioned shampoo (1st) in an amount of 1%. A hair tress (2.5 g) is washed in 100 ml of a 20% shampoo solution in water by immersing 5-10 times and stirring, and then rinsed in 100 ml of clear water by immersing it three times. The hair tress is carefully patted with thin cellulose. The moist hair tress is transferred to a 100 ml Erlenmeyer flask sealed with a septum and left to stand for 3 h. The headspace above the washed and rinsed hair tress is extracted over 15 min using solid phase microextraction (SPME). The SPME needle is desorbed in a GC injector, and a gas chromatogram is recorded. […] The analytical results are then used mathematically as described above.

[3] = Headspace above the fresh gel room air freshener: relative partition parameter (SPME-GC); conditions: log of amount in headspace relative to amount in gel; 5% odorant mixture, 10 liter vessel, 1 h, SPME 15 min
Description: as §1
The example reflects the scent impression, which is perceived above a fresh gel room air freshener. The mixture of 39 odorants is incorporated into an air freshener in an amount of 5%. 100 g of the air freshener are placed in its customary presentation form in a large sealed 10 liter vessel. The air freshener is left to stand for one hour. The headspace above the air freshener is extracted using a SPME over 15 min. […] The analytical results are then used mathematically as described above.

[4] = Headspace above the soap bar: relative partition parameter (SPME-GC)
Description: as §1
The example reflects the scent impression, which is perceived from a fresh bar of soap. […] 20 g of the grated soap are transferred to a 100 ml Erlenmeyer flask sealed with a septum. The headspace above the shampoo is extracted using a SPME over 15 min. […] The analytical results are then used mathematically as described above.

[5] = Headspace above the solution of WC scented block cleaner: relative partition parameter (SPME-GC); conditions: log of amount in headspace above 1% solution in water relative to amount in WC block; 1% odorant mixture, SPME 15 min
Description: as §1
The example reflects the scent impression, which is perceived from a WC scented block cleaner. The mixture of 39 odorants is incorporated into the toilet block in an amount of 1%. A 1% solution of the toilet block in water is prepared. 20 ml of this solution are transferred to a 100 ml Erlenmeyer flask sealed with a septum. The headspace above the shampoo is extracted by means of a SPME over 15 min. […] The analytical results are then used mathematically as described above.

[6] = Headspace above the candle wax: relative partition parameter (SPME-GC); conditions: log of amount in headspace relative to amount in candle wax; 5% odorant mixture, grated nonburning candle, SPME 15 min
Description: as §1
The example reflects the scent impression, which is perceived from a nonburning candle. The mixture of 39 odorants is incorporated into a candle in an amount of 5%. 20 g of the grated candle are transferred to a 100 ml Erlenmeyer flask sealed with a septum. The headspace above the candle is extracted using a SPME over 15 min. […] The analytical results are then used mathematically as described above.

[7] = Headspace above the washing powder: relative partition parameter (SPME-GC)
Description: as §1
The example reflects the scent impression, which is perceived from a freshly opened pack of laundry detergent. The mixture of 39 odorants is incorporated in the above-mentioned washing powder in an amount of 0.5%. 20 g of the washing powder are transferred to a 100 ml Erlenmeyer flask sealed with a septum. The headspace above the shampoo is extracted using a SPME over 15 min. […] The analytical results are then used mathematically as described above.

[8] = log of amount in headspace above wet washed hair relative to amount in shampoo, 1% odorant mixture, 3 h standing, SPME 15 min
[9] = log of amount in headspace relative to amount in soap, 1.2% odorant mixture, grated soap, SPME 15 min
[10] = log of amount in headspace relative to amount in washing powder, 0.5% odorant mixture, SPME 15 min

Compound	Activity (logarithmic partition parameter above shampoo) [1]	Activity (logarithmic partition parameter above wet hair) [2, 8]	Activity (logarithmic partition parameter above gel room air fresheners) [3]	Activity (logarithmic partition parameter above soap) [4, 9]	Activity (logarithmic partition parameter above dissolved WC scented block cleaners) [5]	Activity (logarithmic partition parameter above candle wax) [6]	Activity (logarithmic partition parameter above washing powder) [7, 10]	Activity (logarithmic partition parameter above wet hair) [2]	Activity (logarithmic partition parameter above soap) [4]	Activity (logarithmic partition parameter above washing powder) [7]
CC(=O)O[C@@H]1C[C@H]2CC[C@]1(C)C2(C)C (racemic) [Isobornyl acetate]	−0.026	−0.741	0.392	0.147	−0.434	−0.588	0.061	–	–	–
CC(=O)OCc1ccccc1 [Benzyl acetate]	−0.293	−1.006	0.594	0.538	−1.552	−0.244	0.224	–	–	–
OCc1ccccc1 [Benzyl alcohol]	−0.759	−1.867	0.148	−0.088	–	−0.364	−0.389	–	–	–
O=C(OCc1ccccc1)c1ccccc1O [Benzyl salicylate]	–	–	–	–	−3.166	–	−2.349	–	–	–
C=C1C2CCC(C2)C1(C)C (stereo not drawn) [Camphene]	0.777	−0.721	−0.116	0.392	−1.348	0.783	0.357	–	–	–
C[C@@H]1CC[C@H]2C(C)(C)[C@H]3C[C@@]12CC[C@@]3(C)O [Cedrol]	–	−2.475	−1.761	−2.090	−1.348	–	−1.547	–	–	–
CC(=O)O[C@]1(C)CC[C@@]23C[C@@H]1C(C)(C)[C@@H]2CC[C@H]3C [Cedryl acetate]	–	–	−2.566	–	−1.161	–	–	−2.685	−2.483	−1.971
CC(C)=CCCC(C)CCO (stereo not drawn) [Citronellol]	−1.406	−1.818	−0.158	−0.787	−1.575	−1.159	−0.780	–	–	–
CC(=O)OC(C)(C)Cc1ccccc1 [DMBCA, dimethylbenzylcarbinyl acetate]	−0.513	−1.127	0.125	0.059	−0.992	−0.856	−0.041	–	–	–
CCOC(=O)c1ccccc1C(=O)OCC [Diethyl phthalate]	–	–	−2.303	−1.742	–	−2.459	−2.124	–	–	–
C=CC(C)CCCC(C)(C)O (stereo not drawn) [Dihydromyrcenol]	−0.287	−1.056	0.460	0.076	−1.131	−0.324	0.184	–	–	–
C=CCc1ccc(O)c(OC)c1 [Eugenol]	–	−2.257	−0.653	−1.435	−2.412	−0.822	−1.440	–	–	–
CCCCCC/C(C=O)=C\c1ccccc1 [Hexylcinnamaldehyde, alpha]	–	−2.690	–	−2.176	−1.413	–	−1.559	–	–	–
CC(CC=O)CCCC(C)(C)O (stereo not drawn) [Hydroxycitronellal]	–	−2.381	−1.161	−1.804	–	−1.869	−1.609	–	–	–
CC(C)CCOC(=O)c1ccccc1O [Isoamyl salicylate]	−1.716	−1.612	−1.544	−1.190	−0.870	–	−1.467	–	–	–
C=C(C)[C@H]1CC=C(C)CC1 [Limonene D]	0.965	−0.183	0.062	0.748	−1.102	–	–	–	–	–
